{
  "source": "patent US20170299609A1",
  "about": "“TREATMENT OF AMYOTROPHIC LATERAL SCLEROSIS WITH SK CHANNEL ACTIVATORS” (Wright State University, priority 2016, published 2017)",
  "assay_type_in_all_cases": "in vivo",
  "key": {"[1]": {"system": "G93A high expressor line of transgenic male ALS mice with a B6SJL background", "experiment": "Survival of transgenic ALS mice, CyPPA given P5 to P20 (Example 1)", "conditions": "CyPPA 0.014 μg/kg daily IP for 16 days (P5-P20)", "experimental": "(§1) Thus, the effect of SK channel activators on survival and motor function of the G93A high expressor line of transgenic male ALS mice with a B6SJL background (hereinafter, “transgenic ALS mice”) was characterized. The transgenic ALS mice carry a mutation of the superoxide dismutase 1 gene; as a result, the transgenic ALS mice develop a neurodegenerative disease which closely mimics ALS in humans. In this experiment, CyPPA (n=13) or vehicle solution (i.e., saline+11% DMSO, n=12) was administered early to the transgenic ALS mice for sixteen (16) days (between ages P5 and P20) via daily intraperitoneal (i.e., IP) injection. CyPPA was administered at a dose of 0.014 μg/kg in both experiments.\n(§2) In this experiment, the effect of CyPPA on survival of the transgenic ALS mice was assessed by determining when the transgenic ALS mice met end point criteria, i.e., full paralysis of both hind limbs and failing to right themselves 30 seconds after being turned on their backs. Additionally, the effect of CyPPA on motor function of the transgenic ALS mice was assessed by daily measuring from the age of P85 to the end stage using the rotarod machine. More specifically, the transgenic ALS mice were placed on a rotating rod for four minutes at a speed of 5 rotations per minute (i.e., RPM). The speed was increased to 25 RPM and the transgenic ALS mice were deemed unable to complete the task if they could complete only five percent (i.e., 12 seconds) of the task (i.e., the end stage). Rotarod performance was assessed to detect onset of symptoms associated with the neurodegenerative disease mimicking ALS in humans in the transgenic ALS mice and/or to monitor disease progression in the transgenic ALS mice, such as, e.g., via characterizing the rate of loss of motor function."}, "[2]": {"system": "G93A high expressor line of transgenic male ALS mice with a B6SJL background", "experiment": "Rotarod motor function of transgenic ALS mice, CyPPA given P5 to P20 (Example 1)", "conditions": "CyPPA 0.014 μg/kg daily IP for 16 days (P5-P20)", "experimental": "as §1, §2"}, "[3]": {"system": "G93A high expressor line of transgenic male ALS mice with a B6SJL background", "experiment": "Rotarod motor function of transgenic ALS mice, CyPPA given at ALS onset P90 to P96 (Example 2)", "conditions": "CyPPA 0.014 μg/kg daily IP for 7 days (P90-P96); 92 to 105 and 112 to 119 days of age; FIG. 4", "experimental": "Because symptoms of ALS in the transgenic ALS mice emerge around P90, the effect of administering CyPPA at P90 was characterized. Without being bound by the theory, it is believed that administration of CyPPA in the transgenic ALS mice at ALS onset would correlate to beginning treatment in humans upon diagnosis of ALS. In this experiment, CyPPA (n=14) or vehicle solution (i.e., saline+11% DMSO; n=14) was administered to the transgenic ALS mice for seven (7) days (between ages P90 and P96) via daily IP injection. CyPPA was administered at a dose of 0.014 μg/kg.\nas §2, with “stage).” for “stage). Rotarod performance was assessed to detect onset of symptoms associated with the neurodegenerative disease mimicking ALS in humans in the transgenic ALS mice and/or to monitor disease progression in the transgenic ALS mice, such as, e.g., via characterizing the rate of loss of motor function.”"}},
  "data": [
    {"smiles": "Cc1cc(NC2CCCCC2)nc(-n2nc(C)cc2C)n1", "note": "[CyPPA]", "values": [
      {"measurement": "longer survival relative to control injected with vehicle solution", "setting": "[1]", "result": 10, "unit": "days"},
      {"measurement": "increase in mean survival over control injected with vehicle solution", "setting": "[1]; p=0.0063", "result": "~8", "unit": "%"},
      {"measurement": "mean survival", "setting": "[1]; vehicle 125.76 days, p=0.0063", "result": 135.72, "unit": "days"},
      {"measurement": "time able to stay on the rotarod relative to vehicle control", "setting": "[2]; 122 to 126 days of age, FIG. 3", "result": "significantly longer"},
      {"measurement": "able to complete the rotarod task longer than vehicle-injected mice", "setting": "[2]; FIG. 2", "result": 5, "unit": "days"},
      {"measurement": "reduction of rate of decline in motor function relative to vehicle control", "setting": "[2]; FIG. 3, p=0.0017", "result": "~40", "unit": "%"},
      {"measurement": "slope of decline in motor function (rotarod percent complete vs days of age)", "setting": "[2]; FIG. 3 line A, vehicle slope 0.0349", "result": 0.0211},
      {"measurement": "average motor function (rotarod completion ratio) versus vehicle control", "setting": "[3]", "result": "significantly better"}
    ]}
  ]
}
